Among the data in US11622970B2, “BCL-2 inhibitors and their use as pharmaceuticals” (PRELUDE THERAPEUTICS INCORPORATED, priority 2020, dated 2023) are inhibition and IC50 values, retold here.

The target of one assay is BCL-2 recombinant protein (Homo sapiens, UniProt P10415). The assay can be described thus: Cell free Bcl-2:Bak affinity assay (Bcl-2 Bak), HTRF competition of FAM-Bak peptide. It is filed as binding. The note with it: 1 μM compound, 4 nM BCL-2 recombinant protein, 100 nM FAM-Bak, read-out: potency (% inhibition at 1 μM). In short, it runs like this: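 Compounds in 10-point 3-fold dilution preincubated 10 min at RT with 4 nM GST-BCL-2 (20 mM K phosphate pH 7.5, 50 mM NaCl, 1 mM EDTA, 0.005% Triton X-100), then 100 nM FAM-Bak 10 min, anti-GST-Tb added, 60 min RT dark. HTRF read; % inhibition vs DMSO and positive control, IC50 from curve fit.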
Sequence of BCL-2 recombinant protein (P10415 whole entry): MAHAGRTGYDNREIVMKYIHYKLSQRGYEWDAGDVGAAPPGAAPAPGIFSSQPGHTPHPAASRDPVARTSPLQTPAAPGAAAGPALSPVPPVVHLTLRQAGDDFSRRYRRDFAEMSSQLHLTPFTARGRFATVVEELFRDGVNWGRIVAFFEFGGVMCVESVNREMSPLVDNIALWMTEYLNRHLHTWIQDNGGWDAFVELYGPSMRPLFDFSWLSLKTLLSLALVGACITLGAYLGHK
Consider `Cn1ncc2ccc(-c3nc(C(=O)NS(=O)(=O)c4ccc(N5CCN(CC6=C(c7ccc(Cl)cc7)CC(C)(C)CC6)CC5)cc4)ccc3F)cc21` [Example 60, N-[4-[4-[[2-(4-Chlorophenyl)-4,4-dimethylcyclohexen-1-yl]methyl]piperazin-1-yl]phenyl]sulfonyl-5-fluoro-6-(1-methyl-1H-indazol-6-yl)pyridine-2-carboxamide], for which the inhibition at 1 µM was in the range of 50 to 90%.

For `CC1(C)CCC(CN2CCN(c3ccc(S(=O)(=O)NC(=O)c4ccc(F)c(-c5ccncc5)n4)cc3)CC2)=C(c2ccc(Cl)cc2)C1` [Example 61, N-[4-[4-[[2-(4-chlorophenyl)-4,4-dimethyl-cyclohexen-1-yl]methyl]piperazin-1-yl]phenyl]sulfonyl-5-fluoro-6-(4-pyridyl)pyridine-2-carboxamide], the inhibition at 1 µM is below 50%.

The same assay, now with this note: 10-concentration IC50 mode, 4 nM BCL-2 recombinant protein, 100 nM FAM-Bak, read-out: potency (IC50).
Regarding `COc1cc(-c2nc(C(=O)NS(=O)(=O)c3ccc(N4CCN(CC5=C(c6ccc(Cl)cc6)CC(C)(C)CC5)CC4)cc3Oc3cnc4[nH]ccc4c3)ccc2F)ccn1` [Example 62, N-[4-[4-[[2-(4-Chlorophenyl)-4,4-dimethylcyclohexen-1-yl]methyl]piperazin-1-yl]-2-(1H-pyrrolo[2,3-b]pyridin-5-yloxy)phenyl]sulfonyl-5-fluoro-6-(2-methoxypyridin-4-yl)pyridine-2-carboxamide], the IC50 was 0.1 to 1 µM.

For the compound `Cn1cc(-c2nc(C(=O)NS(=O)(=O)c3ccc(N4CCN(CC5=C(c6ccc(Cl)cc6)CC(C)(C)CC5)CC4)cc3Oc3cnc4[nH]ccc4c3)ccc2F)cn1` [Example 63, N-[4-[4-[[2-(4-Chlorophenyl)-4,4-dimethylcyclohexen-1-yl]methyl]piperazin-1-yl]-2-(1H-pyrrolo[2,3-b]pyridin-5-yloxy)phenyl]sulfonyl-5-fluoro-6-(1-methylpyrazol-4-yl)pyridine-2-carboxamide], the IC50 was in the range of 0.01 to 0.1 µM.

`Cc1cc([N+](=O)[O-])cc(C(=O)NS(=O)(=O)c2ccc(C3=CCN(CC4=C(c5ccc(Cl)cc5)CC(C)(C)CC4)CC3)cc2Oc2cnc3[nH]ccc3c2)n1` [Example 64, N-[4-[1-[[2-(4-Chlorophenyl)-4,4-dimethylcyclohexen-1-yl]methyl]-3,6-dihydro-2H-pyridin-4-yl]-2-(1H-pyrrolo[2,3-b]pyridin-5-yloxy)phenyl]sulfonyl-6-methyl-4-nitropyridine-2-carboxamide]: the IC50 is above 1 µM.

`Cc1cc([N+](=O)[O-])cc(C(=O)NS(=O)(=O)c2ccc(C3=CCN(CC4=C(c5ccc(Cl)cc5)CC(C)(C)CC4)CC3)cc2F)n1` [Example 65, N-[4-[1-[[2-(4-Chlorophenyl)-4,4-dimethylcyclohexen-1-yl]methyl]-3,6-dihydro-2H-pyridin-4-yl]-2-fluorophenyl]sulfonyl-6-methyl-4-nitropyridine-2-carboxamide]: the IC50 was below 0.01 µM.

On to `Cc1cc([N+](=O)[O-])cc(C(=O)NS(=O)(=O)c2ccc(N3CCN(CC4=C(c5ccc(Cl)cc5)CC(C)(C)CC4)CC3)cc2Oc2cnc3[nH]ccc3c2)n1` [Example 66, N-[4-[4-[[2-(4-Chlorophenyl)-4,4-dimethylcyclohexen-1-yl]methyl]piperazin-1-yl]-2-(1H-pyrrolo[2,3-b]pyridin-5-yloxy)phenyl]sulfonyl-6-methyl-4-nitropyridine-2-carboxamide], for which the concentration for half-maximal inhibition (IC50) was in the range of 0.01 to 0.1 µM.

With `CC1(C)CCC(CN2CCN(c3ccc(S(=O)(=O)NC(=O)c4ccc(F)c(Br)n4)c(Oc4cnc5[nH]ccc5c4)c3)CC2)=C(c2ccc(Cl)cc2)C1` [Example 67, N-[4-[4-[[2-(4-chlorophenyl)-4,4-dimethylcyclohexen-1-yl]methyl]piperazin-1-yl]-2-(1H-pyrrolo[2,3-b]pyridin-5-yloxy)phenyl]sulfonyl-6-bromo-5-fluoropyridine-2-carboxamide], the IC50 lay within 0.01 to 0.1 µM.

For the compound `CC1(C)CCC(CN2CCN(c3ccc(S(=O)(=O)NC(=O)c4ccc(Cl)c(Cl)n4)c(Oc4cnc5[nH]ccc5c4)c3)CC2)=C(c2ccc(Cl)cc2)C1` [Example 68, 5,6-Dichloro-N-[4-[4-[[2-(4-chlorophenyl)-4,4-dimethylcyclohexen-1-yl]methyl]piperazin-1-yl]-2-(1H-pyrrolo[2,3-b]pyridin-5-yloxy)phenyl]sulfonylpyridine-2-carboxamide], the 50% inhibitory concentration (IC50) fell in the range of 0.01 to 0.1 µM.

For the compound `Cc1nc(C(=O)NS(=O)(=O)c2ccc(N3CCN(CC4=C(c5ccc(Cl)cc5)CC(C)(C)CC4)CC3)cc2Oc2cnc3[nH]ccc3c2)ccc1F` [Example 69, N-[4-[4-[[2-(4-chlorophenyl)-4,4-dimethylcyclohexen-1-yl]methyl]piperazin-1-yl]-2-(1H-pyrrolo[2,3-b]pyridin-5-yloxy)phenyl]sulfonyl-5-fluoro-6-methylpyridine-2-carboxamide], the IC50 fell in the range of 0.01 to 0.1 µM.

With `Cc1nc(C(=O)NS(=O)(=O)c2ccc(N3CCN(CC4=C(c5ccc(Cl)cc5)CC(C)(C)CC4)CC3)cc2Oc2cnc3[nH]ccc3c2)ccc1[N+](=O)[O-]` [Example 70, N-[4-[4-[[2-(4-chlorophenyl)-4,4-dimethylcyclohexen-1-yl]methyl]piperazin-1-yl]-2-(1H-pyrrolo[2,3-b]pyridin-5-yloxy)phenyl]sulfonyl-6-methyl-5-nitropyridine-2-carboxamide], the IC50 is 0.01 to 0.1 µM.

Take `CC1(C)CCC(CN2CCN(c3ccc(S(=O)(=O)NC(=O)c4ccc(Cl)c(C(F)(F)F)n4)c(Oc4cnc5[nH]ccc5c4)c3)CC2)=C(c2ccc(Cl)cc2)C1` [Example 71, 5-Chloro-N-[4-[4-[[2-(4-chlorophenyl)-4,4-dimethylcyclohexen-1-yl]methyl]piperazin-1-yl]-2-(1H-pyrrolo[2,3-b]pyridin-5-yloxy)phenyl]sulfonyl-6-(trifluoromethyl)pyridine-2-carboxamide]: the half-inhibitory concentration (IC50) fell in the range of 0.1 to 1 µM.

Take `CC1(C)CCC(CN2CCN(c3ccc(S(=O)(=O)NC(=O)c4ccc([N+](=O)[O-])c(Cl)n4)c(Oc4cnc5[nH]ccc5c4)c3)CC2)=C(c2ccc(Cl)cc2)C1` [Example 72, 6-Chloro-N-[4-[4-[[2-(4-chlorophenyl)-4,4-dimethylcyclohexen-1-yl]methyl]piperazin-1-yl]-2-(1H-pyrrolo[2,3-b]pyridin-5-yloxy)phenyl]sulfonyl-5-nitropyridine-2-carboxamide]: the half-maximal inhibitory concentration (IC50) fell in the range of 0.01 to 0.1 µM.

In the case of `Cc1nc(C(=O)NS(=O)(=O)c2ccc(N3CCN(CC4=C(c5ccc(Cl)cc5)CC(C)(C)CC4)CC3)cc2Oc2cnc3[nH]ccc3c2)ccc1Cl` [Example 73, N-[4-[4-[[2-(4-chlorophenyl)-4,4-dimethylcyclohexen-1-yl]methyl]piperazin-1-yl]-2-(1H-pyrrolo[2,3-b]pyridin-5-yloxy)phenyl]sulfonyl-5-chloro-6-methylpyridine-2-carboxamide], the IC50 is 0.01 to 0.1 µM.

Regarding `CC1(C)CCC(CN2CCN(c3ccc(S(=O)(=O)NC(=O)c4ccc5c(c4)CCCO5)c(Oc4cnc5[nH]ccc5c4)c3)CC2)=C(c2ccc(Cl)cc2)C1` [Example 74, N-[4-[4-[[2-(4-chlorophenyl)-4,4-dimethylcyclohexen-1-yl]methyl]piperazin-1-yl]-2-(1H-pyrrolo[2,3-b]pyridin-5-yloxy)phenyl]sulfonyl-3,4-dihydro-2H-chromene-6-carboxamide], the IC50 fell in the range of 0.1 to 1 µM.

For the compound `CC1(C)CCC(CN2CCN(c3ccc(S(=O)(=O)NC(=O)c4cnc5sccc5c4)c(Oc4cnc5[nH]ccc5c4)c3)CC2)=C(c2ccc(Cl)cc2)C1` [Example 75, N-((2-((1H-pyrrolo[2,3-b]pyridin-5-yl)oxy)-4-(4-[[2-(4-Chlorophenyl)-4,4-dimethylcyclohexen-1-yl]methyl]piperazin-1-yl]phenyl)sulfonyl)thieno[2,3-b]pyridine-5-carboxamide], the IC50 lay in the range of 0.1 to 1 µM.

For the compound `Cc1cn(C)nc1C(=O)NS(=O)(=O)c1ccc(N2CCN(CC3=C(c4ccc(Cl)cc4)CC(C)(C)CC3)CC2)cc1Oc1cnc2[nH]ccc2c1` [Example 76, N-[4-[4-[[2-(4-chlorophenyl)-4,4-dimethylcyclohexen-1-yl]methyl]piperazin-1-yl]-2-(1H-pyrrolo[2,3-b]pyridin-5-yloxy)phenyl]sulfonyl-1,4-dimethylpyrazole-3-carboxamide], the IC50 is 0.01 to 0.1 µM.

Regarding `Cc1cc(C(=O)NS(=O)(=O)c2ccc(N3CCN(CC4=C(c5ccc(Cl)cc5)CC(C)(C)CC4)CC3)cc2Oc2cnc3[nH]ccc3c2)nn1C` [Example 77, N-[4-[4-[[2-(4-chlorophenyl)-4,4-dimethylcyclohexen-1-yl]methyl]piperazin-1-yl]-2-(1H-pyrrolo[2,3-b]pyridin-5-yloxy)phenyl]sulfonyl-1,5-dimethylpyrazole-3-carboxamide], the half-maximal inhibitory concentration (IC50) is 0.1 to 1 µM.

Turning to `Cc1nn(C)c(C(=O)NS(=O)(=O)c2ccc(N3CCN(CC4=C(c5ccc(Cl)cc5)CC(C)(C)CC4)CC3)cc2Oc2cnc3[nH]ccc3c2)c1C` [Example 78, N-[4-[4-[[2-(4-chlorophenyl)-4,4-dimethylcyclohexen-1-yl]methyl]piperazin-1-yl]-2-(1H-pyrrolo[2,3-b]pyridin-5-yloxy)phenyl]sulfonyl-2,4,5-trimethylpyrazole-3-carboxamide], the IC50 was 0.1 to 1 µM.

Consider `Cc1cc(C(=O)NS(=O)(=O)c2ccc(N3CCN(CC4=C(c5ccc(Cl)cc5)CC(C)(C)CC4)CC3)cc2Oc2cnc3[nH]ccc3c2)cc([N+](=O)[O-])c1` [Example 79, N-[4-[4-[[2-(4-chlorophenyl)-4,4-dimethylcyclohexen-1-yl]methyl]piperazin-1-yl]-2-(1H-pyrrolo[2,3-b]pyridin-5-yloxy)phenyl]sulfonyl-3-methyl-5-nitrobenzamide], for which the IC50 is 0.01 to 0.1 µM.

Take `Cc1c(Cl)c(C(=O)NS(=O)(=O)c2ccc(N3CCN(CC4=C(c5ccc(Cl)cc5)CC(C)(C)CC4)CC3)cc2Oc2cnc3[nH]ccc3c2)cc([N+](=O)[O-])c1NCC1CCOCC1` [Example 80, 2-Chloro-N-[4-[4-[[2-(4-chlorophenyl)-4,4-dimethylcyclohexen-1-yl]methyl]piperazin-1-yl]-2-(1H-pyrrolo[2,3-b]pyridin-5-yloxy)phenyl]sulfonyl-3-methyl-5-nitro-4-(oxan-4-ylmethylamino)benzamide]: the IC50 was below 0.01 µM.
